Results taken from patent publication US6710090B2, “Inhibitory or blocking agents of molecular generating and/or inducing functions” (priority 1994, dated 2004).

How the values were obtained:
[1] = system: human blood coagulation and fibrin formation; assay: Human blood coagulation and fibrin formation, thromboelastgram and scanning electron microscopy; format: biochemical
Method: Effect of Yoshixol (4 μl) on human blood coagulation and fibrin formation (thrombin was added to fibrinogen) were investigated by thromboelastgram (Hellige GMBH, West Germany). Also, a magnitude of fibrin network which is formed at human blood coagulation was investigated by a scanning electron microscopy. Coagulation of human blood without treatment with Yoshixol was started within 1-2 min so that maximum level of coagulation occurred approximately within 15 min, followed by gradual decrease due to activation of fibrinolytic system. Immediately after thrombin is added on fibrinogen, viscosity of the sample started to increase, reached to a maximum level within 5-6 minutes. This maximum level was maintained for periods of 6 hours which was observed (referred FIG. 3a). However, when Yoshixol (4 μl) was added in 0.4 ml of whole blood or fibrinogen (160 mg/dl), onset time of blood coagulation and fibrin formation was delayed to 4-5 minutes and maximum aggregation time was occurred within 6-8 minutes. Maximum level of coagulation after the treatment was inhibited by 90% of control which level was maintained over 6 hours of investigation (referred FIG. 3b).

[2] = molecular target: T1, vasopressin (Homo sapiens, UniProt P01185); assay: Physiological function of vasopressin treated with Yoshixol, blood pressure; format: in vivo; conditions: rabbit, intravenous vasopressin 100 ng/Kg treated with Yoshixol 4 μl; untreated vasopressin 15-25 mmHg
T1 construct: Effect on Physiological Function of Vasopressin and Insulin as Peptides; purchased Sigma Co. Saint Louis, Mo., USA
Method: Each vasopressin and insulin has a physiological effect such as a rise of blood pressure and a fall of sugar level in blood respectively. An effect of Yoshixol on these physiological functions was investigated and compared by injection of each hormone without or with treatment with Yoshixol in rabbit in vivo. When vasopressin (100 ng/Kg, Sigma Co. Saint Louis, Mo., USA) without treatment with Yoshixol was injected intravenously, blood pressure increased by 15-25 mmHg so that this increased level was maintained for about 25 minutes. But, vasopressin (100 ng/Kg) treated with Yoshixol (4 μl) caused a increase in blood pressure of only about 5 mmHg (referred FIG. 6).

[3] = system: pseudomonas aeruginosa; assay: Histological observation of pseudomonas aeruginosa after treatment; format: cell-based; conditions: after treatment with Yoshixol
[4] = system: nitric oxide (NO); assay: Involvement of nitric oxide, NG-methyl-L-arginine (NMLA) as blocking agent; conditions: 4 μl of NMLA (1 mol) added; compared to Yoshixol alone
Method: Recent interest has been focused recently in effects of nitric oxide (NO) which is generated in body. Such effects are anticancer effect, bactericidal effect, inhibitory effect of antigen-antibody reaction and cardiovascular effect. […] When 4 μl of NMLA (1 mol) was added in the each test sample with and without Yoshixol, blood aggregation effect, effect of fibrin formation and bactericidal effect of Yoshixol were decreased by 10-20% comparing to effect of Yoshixol alone.

[5] = system: keratinocytes isolated from a human skin; assay: Anti-cancer effect, cultured keratinocytes, microscopy; format: cell-based; conditions: 4 μl of Yoshixol
Description: Adhesive factors between cells play an important role on prolifelation of malignant tumor cells and metastasis. In order to investigate the adhesive factors between cells, intracellular structure of cultured keratinocytes are utilized to observe. Thus, by using keratinocytes isolated from a human skin and cultured in this invention, structure between cells and cellular aspect of keratinocytes (5 days passed after culturing of second generation) were investigated by phase microscope (Olympus Co., IMT-2), transmission type (JEOL, Ltd. JEM 1200, EXII) and scanning type (JEOL, Ltd. JSM-6000F) electron microscopes. In the non-treated group with Yoshixol, the cultured cells proliferated monologously and in order as like as a stone wall. There were normal aspects of intracellular organella and mitosis. There were not blank spaces between cell and filling with intracellular matrix (referred FIGS. 16a, 17a). […] In addition, extracellular matrix has been also dispersed in an irregularity from cells as various sizes of particles (referred FIGS. 16b, 17b). […] And also, Yoshixol has an inhibitory effect of cell prolifelation and metastasis such as tumor cells. […]

[6] = system: mouse hepatoma cells; assay: Anti-cancer effect, cultured mouse hepatoma cells; format: cell-based; conditions: compared with keratinocytes treated with Yoshixol
[7] = system: thrombus; assay: Thrombolytic effect on thrombus, phase contrasted microscopy; format: cell-based, human or canine
Method: In order to investigate a thrombolytic effect of Yoshixol on thrombus, 1 ml of human blood or canine blood were sampled by a syringe and transferred into the Petori-schale (grainer lab. GmHB) so that thrombus formation and rouleaux formation were observed under a phase contrasted microscopy (IMT-2, Olympus Co.). Then, 1 μl of Yoshixol was added in the blood sample when all visual fields could not be discriminated as an normal individual erythrocyte by thrombus formation. Then, a thrombolytic process of the thrombus was investigated and the process was recorded to a video tape via a collar video camera (CCD-IRIS, Sony Co.). The video pictures were analyzed as a liquid phenomena by an original software of dynamic state analysis. […] And, while original form of erythrocyte was recovered, each erythrocyte was marvelously dispersed from thrombus. […] And, Yoshixol has a potential to improve circulatory hindrance which is disturbed physiological role on original blood such as fluidability by being solidability. Yoshixol can apply as thrombolytic agents as well as inhibitory agents for thrombus formation.

[8] = beagles, oral 10 μl per body weight
[9] = beagles, oral 10 μl per body weight, 1 week

C=C1CC(C)(C)C=CC1=O [Yoshixol, 4,4-dimethyl-6-methylene-2-cyclohexen-1-one]
maximum aggregation time ([1]; Yoshixol 4 μl in 0.4 ml whole blood or fibrinogen (160 mg/dl)): 6 to 8 min
onset time of blood coagulation and fibrin formation ([1]; Yoshixol 4 μl in 0.4 ml whole blood or fibrinogen (160 mg/dl), untreated blood 1-2 min): 4 to 5 min
inhibition of maximum level of coagulation ([1]; Yoshixol 4 μl in 0.4 ml, level maintained over 6 hours): 90 % of control
rouleaux formation of erythrocyte and formation of fibrin net ([1]; morphological investigation, scanning electron microscopy): did not occur
increase in blood pressure [2]: about 5 mmHg
histological observation of the bacilli [3]: swelled as likely as a balloon and were ruptured
decrease of blood aggregation effect, effect of fibrin formation and bactericidal effect of Yoshixol [4]: 10-20%
aspects of cultured cells ([5]; 5 days after culturing of second generation): showed diverse irregularity
cell membrane and intracellular organella ([5]; electron microscopes): destroyed with varieties
structure between cells and cellular aspect [6]: observations similar to the above were found
hemolysis due to swelling and rupturing each erythrocyte ([7]; 1 μl of Yoshixol in 1 ml blood sample): did not occur
thrombus after adding Yoshixol ([7]; 1 μl of Yoshixol in 1 ml blood sample with thrombus): completely individualized to each erythrocyte
albumin/globulin ratio [8]: elevated 3 days after administration
creatinine phosphokinase [8]: fell
enzymes such as γ-GPT, GOT, GPT [8]: also fell
albumin level [9]: did not change
changes in concentration of total bilirubin, GOT, GPT, TTT, ZTT, cholinesterase, serum iron, potassium, sodium, chloride, inorganic phosphorus and calcium [9]: did not found
difference in concentration of total cholesterol and triglyceride between groups [9]: did not occur
level of uric acid (beagles, oral 10 μl per body weight, during the administration): maintained at lower level
total proteins in blood serum (beagles, oral 10 μl per body weight, recovery 1 week after stop): increased 3 days after administration
levels of nonproteins nitrogen and creatinine in the serum (beagles, oral 10 μl per body weight, since 1 day after administration): 70-80 % of the control
TTT and ZTT (dog, in vivo, po): did not show abnormal values
changes in numbers of red blood cells, white blood cells and platelets (dog, in vivo, po): did not found
